± gives the standard deviation of the averaged measurements.
Legend:
MK2206 = compound: NC1(c2ccc(-c3nc4ccn5c(=O)[nH]nc5c4cc3-c3ccccc3)cc2)CCC1 [MK2206]; experiment: surviving fraction relative to DMSO-only wells; higher = less growth inhibition; details: exposure time: 5 days
Outline: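 Surviving fraction was calculated by normalising CellTiter-Glo luminescence to the median of DMSO-only wells. Tumour cell lines in log phase were seeded in 384-well plates at 250–500 cells per well, and 24 hours later were exposed continuously for five days to inhibitors at 0.5, 1, 5, 10, 50, 100, 500 and 1000 nM.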

MK0752 = compound: O=C(O)CC[C@H]1CC[C@@](c2cc(F)ccc2F)(S(=O)(=O)c2ccc(Cl)cc2)CC1 [MK0752]; experiment: area under dose-response curve of surviving fraction (unscaled, Aref=0) (surviving fraction x log10(nM)); higher = more resistant; details: exposure time: 5 days; dose range 0.5-1000 nM
Outline: (§1)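 Surviving fractions were fitted by 3-parameter logistic regression in the drc R package to give dose-response survival curves. They came from tumour cell lines treated for five days with eight inhibitor concentrations from 0.5 to 1000 nM and read by CellTiter-Glo luminescence against DMSO-only wells. The area under the curve is the unscaled activity area. It was calculated over log10 dose with Aref = 0.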

SUNITINIB = compound: CCN(CC)CCNC(=O)c1c(C)[nH]c(/C=C2\C(=O)Nc3ccc(F)cc32)c1C [SUNITINIB]; experiment: as above; details: exposure time: 5 days; dose range 0.5-1000 nM
Outline: as §1

C33A CERVIX was tested, and the surviving fraction (MK2206; 0.5 nM) was 0.919 ± 0.03, the surviving fraction (MK2206; 1 nM) was 0.917 ± 0.026 and the surviving fraction (MK2206; 5 nM) was 1.05 ± 0.085. For the same test system, the surviving fraction (MK2206; 10 nM) was 0.929 ± 0.029, the surviving fraction (MK2206; 50 nM) was 1.01 ± 0.063 and the surviving fraction (MK2206; 100 nM) was 0.925 ± 0.058. For the same test system, the surviving fraction (MK2206; 500 nM) was 0.812 ± 0.084, the surviving fraction (MK2206; 1000 nM) was 0.817 ± 0.042 and the “area under dose-response curve” value (MK0752) was 3.7.
With CAL72 BONE the surviving fraction (MK2206; 0.5 nM) was 1.1 ± 0.024, the surviving fraction (MK2206; 1 nM) was 1.1 ± 0.11 and the surviving fraction (MK2206; 5 nM) was 1.12 ± 0.06. For the same test system, the surviving fraction (MK2206; 10 nM) was 1.11 ± 0.1, the surviving fraction (MK2206; 50 nM) was 1.12 ± 0.019 and the surviving fraction (MK2206; 100 nM) was 1.16 ± 0.096. For the same test system, the surviving fraction (MK2206; 500 nM) was 1.06 ± 0.087, the surviving fraction (MK2206; 1000 nM) was 1.05 ± 0.053 and the “area under dose-response curve” value (MK0752) was 3.63.
Work on G292 BONE yielded a surviving fraction (MK2206; 0.5 nM) of 0.96 ± 0.031, a surviving fraction (MK2206; 1 nM) of 1.01 ± 0.06 and a surviving fraction (MK2206; 5 nM) of 0.997 ± 0.033. It also gave a surviving fraction (MK2206; 10 nM) of 0.992 ± 0.031, a surviving fraction (MK2206; 50 nM) of 0.893 ± 0.041 and a surviving fraction (MK2206; 100 nM) of 0.833 ± 0.018. The surviving fraction (MK2206; 500 nM) was 0.748 ± 0.054, the surviving fraction (MK2206; 1000 nM) was 0.724 ± 0.026 and the “area under dose-response curve” value (SUNITINIB) was 2.82. For the same test system, the “area under dose-response curve” value (MK0752) was 3.19.
HCC1395 BREAST was tested, and the surviving fraction (MK2206; 0.5 nM) was 1.08 ± 0.18, the surviving fraction (MK2206; 1 nM) was 0.985 ± 0.056 and the surviving fraction (MK2206; 5 nM) was 1.09 ± 0.16. For the same test system, the surviving fraction (MK2206; 10 nM) was 1.04 ± 0.19, the surviving fraction (MK2206; 50 nM) was 0.934 ± 0.057 and the surviving fraction (MK2206; 100 nM) was 1.1 ± 0.13. The surviving fraction (MK2206; 500 nM) was 0.89 ± 0.082, the surviving fraction (MK2206; 1000 nM) was 0.817 ± 0.15 and the “area under dose-response curve” value (SUNITINIB) was 3.19. For the same test system, the “area under dose-response curve” value (MK0752) was 3.51.
Work on HUO3N1 BONE yielded a surviving fraction (MK2206; 0.5 nM) of 1.03 ± 0.072, a surviving fraction (MK2206; 1 nM) of 1.02 ± 0.045 and a surviving fraction (MK2206; 5 nM) of 1.02 ± 0.052. The surviving fraction (MK2206; 10 nM) was 1.02 ± 0.051, the surviving fraction (MK2206; 50 nM) was 0.897 ± 0.044 and the surviving fraction (MK2206; 100 nM) was 0.825 ± 0.036. For the same test system, the surviving fraction (MK2206; 500 nM) was 0.67 ± 0.023, the surviving fraction (MK2206; 1000 nM) was 0.64 ± 0.014 and the “area under dose-response curve” value (SUNITINIB) was 2.62.
In the case of LNCAP PROSTATE, the surviving fraction (MK2206; 0.5 nM) is reported as 0.974 ± 0.07, the surviving fraction (MK2206; 1 nM) is reported as 0.936 ± 0.075 and the surviving fraction (MK2206; 5 nM) is reported as 0.87 ± 0.015. The surviving fraction (MK2206; 10 nM) was 0.839 ± 0.092, the surviving fraction (MK2206; 50 nM) was 0.529 ± 0.022 and the surviving fraction (MK2206; 100 nM) was 0.398 ± 0.0075. The surviving fraction (MK2206; 500 nM) was 0.0787 ± 0.0097, the surviving fraction (MK2206; 1000 nM) was 0.071 ± 0.0017 and the “area under dose-response curve” value (MK0752) was 3.22.
Test System SCC003 HEADNECK has a surviving fraction (MK2206; 0.5 nM) of 1.09 ± 0.063, a surviving fraction (MK2206; 1 nM) of 1.08 ± 0.049 and a surviving fraction (MK2206; 5 nM) of 1.07 ± 0.053. For the same test system, the surviving fraction (MK2206; 10 nM) was 1.07 ± 0.14, the surviving fraction (MK2206; 50 nM) was 1.03 ± 0.021 and the surviving fraction (MK2206; 100 nM) was 1.09 ± 0.12. For the same test system, the surviving fraction (MK2206; 500 nM) was 0.884 ± 0.05, the surviving fraction (MK2206; 1000 nM) was 0.717 ± 0.068 and the “area under dose-response curve” value (SUNITINIB) was 2.83.
